Assay results taken from patent US12208075B2, “Antimicrobial compositions containing free fatty acids” (priority 2009, dated 2025).

Experiments:
[1] = tested on: adhesion of Candida albicans to human Buccal Epithelial Cells; assay: microbe, parasite or virus in culture; format: cell-based; details: for incremental increase in adhesion inhibitory effect achieved by de-lipidisation (in brackets): versus Table 4
[2] = tested on: Staphylococcus aureus RN 4220; assay: Comparative microbicidal suspension test, free vs emulsified fatty acids; format: cell-based
fresh sheep blood [3] = assay: Blood clotting time, visual tube comparison; details: between 0.5% and […] caprylic acid emulsified in 0.5% DLL
Procedure: Comparative measurement of accelerated clotting times is achieved using appropriate volumes of fresh blood mixed with a volume of test material, where the combined volumes totaled 5 ml in each case in a 15 ml graduated Greiner centrifuge tube (Greiner Bio-one, North Carolina, USA). Immediately after addition of fresh blood, the tubes are inverted twice to mix and allowed to stand without further agitation. Clot formation is visibly apparent when the tubes are tilted slightly, and once a clot formed its integrity was such that it would remain suspended when the tubes were inverted. In each test a 5 ml sample of fresh whole blood (undiluted) is used as a control.
Rate of blood clotting was determined using freshly aspirated sheep blood and apparatus and procedures described in the Methods section. An activated blood clotting meter was used to measure anti-clotting effects and a visual tube comparison to evaluate reduced clotting times.
Blood clotting and/or anti-clotting effects were assessed using a 20% ratio of test item to fresh blood: in practice 4.0 ml of fresh sheep blood was added to tubes containing 1.0 ml of test item, inverted twice to mix and then either left standing for visual assessment of reduced clotting time or a single drop was applied to the cuvette of an activated blood clotting apparatus for assessment of anti-clotting effect (extended time to clot formation).

Staphylococcus aureus [4] = assay: Ex-vivo wound model (beef brisket); details: FIG. 10, 100 minutes exposure, 7 logs inoculum
Escherichia coli = assay: Microbicidal effect of catheter locking solutions in whole blood; format: cell-based; details: 20% by volume, 60 min
Staphylococcus aureus [5] = assay: as above; format: cell-based; details: 20% by volume, 60 min
[6] = tested on: Streptococcus epidermidis; assay: as above; format: cell-based; details: 20% by volume, 60 min
Candida albicans = assay: as above; format: cell-based; details: 20% by volume, 60 min
[7] = tested on: Staphylococcus aureus, Streptococcus epidermidis, Escherichia coli and Candida albicans; assay: Microbicidal effect of catheter locking solutions in whole blood, test inoculums overall; format: cell-based; details: 20%, one hour in whole blood
fresh sheep blood [8] = assay: Activated blood clotting time (Hemochron meter)
[9] = 2.5 mg/ml, Table 5, de-lipidised
[10] = 5.0 mg/ml, Table 5, de-lipidised
[11] = 10 mg/ml, Table 5, de-lipidised
[12] = Table 21, 0.5% W/V fatty acid, free or emulsified in 0.4% W/V DLL
[13] = Table 22, low dose, listed as Free caprylic acid 0.05%
[14] = Table 22, low dose, listed as Free caprylic acid 0.1%
[15] = 2.5 mg/ml, Table 4, lipids as purchased
[16] = 5.0 mg/ml, Table 4, lipids as purchased
[17] = 10 mg/ml, Table 4, lipids as purchased

| Molecule | % Adhesion ([1]; Table 21) | % inhibition ([1]; Table 21) | Test Count/100 BEC [1, 12] | viable count (log number) ([2]; 0 Seconds at 37° C.) | viable count (log number) ([2]; 60 Seconds at 37° C.) | viable count (log number) ([2]; 120 Seconds at 37° C.) | viable count (log number) ([2]; 180 Seconds at 37° C.) | viable count (log number) ([2]; 240 Seconds at 37° C.) | viable count (log number) ([2]; 300 Seconds at 37° C.) | viable count (log number) ([2]; 360 Seconds at 37° C.) | further results |
| --- | --- | --- | --- | --- | --- | --- | --- | --- | --- | --- | --- |
| CC(C)=CCC[C@@H](C)[C@H]1CC[C@@]2(C)C3=C(CC[C@]12C)[C@@]1(C)CC[C@H](O)C(C)(C)[C@@H]1CC3 [DL L] | – | – | – | – | – | – | – | – | – | – | % inhibition at 2.5 mg/ml ([1]; 2.5 mg/ml, Table 5): 54%; Candida albicans per 100 Buccal Epithelial Cell [1, 9]: 247; incremental increase in adhesion inhibitory effect achieved by de-lipidisation (in brackets) ([1]; 2.5 mg/ml): +13%; Candida albicans per 100 Buccal Epithelial Cell [1, 10]: 91; Candida albicans per 100 Buccal Epithelial Cell [1, 11]: 49 |
| CCCCCCCCCC(=O)O [Free capric acid, capric acid] | 90% | 10% | 386 | 6.94 log | 6.32 log | 6.48 log | 6.73 log | 6.36 log | 5.97 log | 6.11 log | – |
| CCCCCC(=O)O [Free caproic acid, caproic acid] | 89% | 11% | 380 | 7.87 log | 7.17 log | 6.82 log | 7.57 log | 6.93 log | 6.47 log | 6.73 log | – |
| CCCCCCCC(=O)O [Free caprylic acid, caprylic acid] | 93% | 7% | 400 | 6.94 log | 6.79 log | 6.83 log | 6.21 log | 6.33 log | 5.89 log | 6.17 log | % Adhesion [1, 13]: 94%; % inhibition [1, 13]: 6%; Test Count/100 BEC [1, 13]: 459; % Adhesion [1, 14]: 95%; % inhibition [1, 14]: 5%; Test Count/100 BEC [1, 14]: 466; factor of amplification of adhesion inhibitory effect in emulsified form ([1]; emulsified versus free): 14; clotting time (fresh sheep blood [3]): approximately 40 seconds |
| CCCCCCCCCCCC(=O)O [Free lauric acid, lauric acid] | 95% | 5% | 450 | – | – | – | – | – | – | – | – |
| CCCCCCCCCCCCCC(=O)O [Free myristic acid, myristic acid] | 92% | 8% | 436 | 7.38 log | 7.27 log | 7.84 log | 6.93 log | 7.11 log | 6.26 log | 6.84 log | – |
| CCCCCCCCC(=O)O [Free pelargonic acid, pelargonic acid] | 84% | 16% | 360 | 6.94 log | 6.55 log | 6.31 log | 5.96 log | 5.67 log | 5.83 log | 5.27 log | – |
| C=CCCCCCCCCC(=O)O [Free undecylenic acid, undecylenic acid] | 86% | 14% | 448 | 7.87 log | 7.19 log | 6.99 log | 6.57 log | 6.83 log | 6.67 log | 6.31 log | – |
| CC(C)=CCC[C@@H](C)[C@H]1CC[C@@]2(C)C3=C(CC[C@]12C)[C@@]1(C)CC[C@H](O)C(C)(C)[C@@H]1CC3 [L, Lanosterol] | – | – | – | – | – | – | – | – | – | – | Candida albicans per 100 Buccal Epithelial Cell [1, 15]: 306; Candida albicans per 100 Buccal Epithelial Cell [1, 16]: 236; Candida albicans per 100 Buccal Epithelial Cell [1, 17]: 133; inhibition at 2500 µg/mL ([1]; Candida albicans, Epithelial cell, read-out: % inhibition at 2.5 mg/ml): 41% |
| [H]/N=C(\N/C(=N/[H])NCCCCCCNC(=N)NC(=N)Nc1ccc(Cl)cc1)Nc1ccc(Cl)cc1 [chlorhexidine, chlorhexidine gluconate] | – | – | – | – | – | – | – | – | – | – | logs remaining (Staphylococcus aureus [4]): 1 logs |
| Bovine Serum Albumin [BSA, reference compound] | – | – | – | – | – | – | – | – | – | – | % inhibition at 2.5 mg/ml ([1]; 2.5 mg/ml, Table 4): 19%; Candida albicans per 100 Buccal Epithelial Cell [1, 15]: 400; Candida albicans per 100 Buccal Epithelial Cell ([1]; 2.5 mg/ml, Table 6, water or 100 mM salt pH 4.5, with/without BSA, listed as BSA Sod′ Lactate): 408; Candida albicans per 100 Buccal Epithelial Cell ([1]; 2.5 mg/ml, Table 6, water or 100 mM salt pH 4.5, with/without BSA, listed as BSA Sod′ citrate): 393; Candida albicans per 100 Buccal Epithelial Cell ([1]; 2.5 mg/ml, Table 6, water or 100 mM salt pH 4.5, with/without BSA, listed as BSA: water): 438; Candida albicans per 100 Buccal Epithelial Cell [1, 16]: 379; % inhibition at 5 mg/ml ([1]; Table 6, listed as BSA Sod′ Lactate): 21%; Candida albicans per 100 Buccal Epithelial Cell ([1]; 5.0 mg/ml, Table 6, listed as BSA Sod′ Lactate): 372; % inhibition at 5 mg/ml ([1]; Table 6, listed as BSA Sod′ citrate): 22%; Candida albicans per 100 Buccal Epithelial Cell ([1]; 5.0 mg/ml, Table 6, listed as BSA Sod′ citrate): 369; % inhibition at 5 mg/ml ([1]; Table 6, listed as BSA: water): 12%; Candida albicans per 100 Buccal Epithelial Cell ([1]; 5.0 mg/ml, Table 6, listed as BSA: water): 400; Candida albicans per 100 Buccal Epithelial Cell [1, 17]: 303; Candida albicans per 100 Buccal Epithelial Cell ([1]; 10 mg/ml, Table 6): 362; % Adhesion ([1]; Table 16): 83%; % inhibition ([1]; Table 16): 17%; Count/100 BEC ([1]; Table 16, 100 mM sodium citrate pH 4.5, 0.5% Methocel, lipids 0.1%): 425 |
| DL BSA: Bovine Serum Albumin treated by the de-lipidisation procedure [reference compound] | – | – | – | – | – | – | – | – | – | – | % inhibition at 2.5 mg/ml ([1]; 2.5 mg/ml, Table 5): 16%; Candida albicans per 100 Buccal Epithelial Cell [1, 9]: 431; incremental increase in adhesion inhibitory effect achieved by de-lipidisation (in brackets) ([1]; 2.5 mg/ml): −3%; Candida albicans per 100 Buccal Epithelial Cell [1, 10]: 393; Candida albicans per 100 Buccal Epithelial Cell [1, 11]: 329 |
| Heparin | – | – | – | – | – | – | – | – | – | – | viable count in whole blood (log number) (Escherichia coli): 7.92 log; viable count in whole blood (log number) (Staphylococcus aureus [5]): 8.39 log; viable count in whole blood (log number) [6]: 8.22 log; viable count in whole blood (log number) (Candida albicans): 6.94 log; microbicidal effect in words [7]: no microbial inhibition; Activated Blood Clotting Time (fresh sheep blood [8]; 5% incorporation in whole blood): 284 s; Activated Blood Clotting Time (fresh sheep blood [8]; 10% incorporation in whole blood): 423 s; Activated Blood Clotting Time (fresh sheep blood [8]; 15% incorporation in whole blood): 601 s; Activated Blood Clotting Time (fresh sheep blood [8]; 20% incorporation in whole blood): 1023 s |
